Values of other authors as cited in PMC140124 (Biological Procedures Online, 1998).
Where two headings read alike, the source gives them in different places. Blank lines part the entries; values can stand above or below the compound they belong to.

- change of absorption clearance (presence of peptidase inhibitors, ref [1]): did not increase
Compound: O=S1(=O)OC(c2ccc(O)cc2)(c2ccc(O)cc2)c2ccccc21 [phenol red]

Compound: L-tyrosyl-D-arginine [D-KTP]
- absorption clearance (the overall transport clearance) (rat everted jejunum, peptidase-resistant isomer, ref [2]): 0.516 µL/min/cm

Compound: L-tyrosyl-L-arginine [KTP]
- appearance on the serosal side (absence of peptidase inhibitors, ref [2]): did not appear on the serosal side
- appearance on the serosal side (presence of peptidase inhibitors such as o-phenanthrolin, tryptophan hydroxamate and bestatin, ref [2]): appeared on the serosal side
